Consider one compound from patent US7943606B2, “Compositions and methods to control abnormal cell growth” (CanCure Laboratories, LLC, priority 2005, dated 2011).

One data set deals with 966 SK cells. As to the kind of experiment: Viability of 966 SK skin fibroblasts (MTT assay). Particulars: 50 and 100 μM, 72 hours. The format is cell-based, human. On the procedure:
(§1) To quantify cell death, around the time when significant and characteristic morphological changes took place, cells were pulse-labeled for 10 minutes with [^3H]thymidine to measure DNA activity as described elsewhere [Tomono, M. and Kiss, Z. (1995), “Ethanol enhances the stimulatory effects of insulin and insulin-like growth factor-I on DNA synthesis in NIH 3T3 fibroblasts,” Biochem. Biophys. Res. Commun. 208, 63-67]. Also, cells were collected as suspensions using trypsin, an established method in cell biology, followed by re-plating of cells in fresh tissue culture medium. If no viable cells were obtained after one week in culture, it meant that the cells at the time of re-plating were dead. Survival values obtained with untreated cells were considered 100%. For the determination of relative number of viable cells after treatments, in most cases the MTT assay was used. This calorimetric assay is based on the ability of living cells, but not dead cells, to reduce 3-(4,5-dimethyl thiazol-2-yl)-2,5-diphenyltetrazolium bromide [Carmichael, J, De Graff, W. G., Gazdar, A. F., Minna, J. D. and Mitchell, J. B. (1987), “Evaluation of tetrazolium-based semi-automated calorimetric assay: Assessment of chemosensitivity testing,” Cancer Res. 47, 936-942]. For this assay, cells were plated in 96-well plates, and the MTT assay was performed both in untreated and treated cell cultures. […]
Background: Formazan colour is commonly taken as a measure of viable cells.

Data set [1] can be described thus: Viability of NIH 3T3 normal fibroblasts (MTT assay). It is filed as cell-based. Particulars: mouse. On the procedure: To quantify cell death, around the time when significant and characteristic morphological changes took place, cells were pulse-labeled for 10 minutes with [^3H]thymidine to measure DNA activity as described elsewhere [Tomono, M. and Kiss, Z. (1995), “Ethanol enhances the stimulatory effects of insulin and insulin-like growth factor-I on DNA synthesis in NIH 3T3 fibroblasts,” Biochem. Biophys. Res. Commun. 208, 63-67]. Also, cells were collected as suspensions using trypsin, an established method in cell biology, followed by re-plating of cells in fresh tissue culture medium. If no viable cells were obtained after one week in culture, it meant that the cells at the time of re-plating were dead. Survival values obtained with untreated cells were considered 100%. For the determination of relative number of viable cells after treatments, in most cases the MTT assay was used. This calorimetric assay is based on the ability of living cells, but not dead cells, to reduce 3-(4,5-dimethyl thiazol-2-yl)-2,5-diphenyltetrazolium bromide [Carmichael, J, De Graff, W. G., Gazdar, A. F., Minna, J. D. and Mitchell, J. B. (1987), “Evaluation of tetrazolium-based semi-automated calorimetric assay: Assessment of chemosensitivity testing,” Cancer Res. 47, 936-942]. For this assay, cells were plated in 96-well plates, and the MTT assay was performed both in untreated and treated cell cultures. The MTT assay also was performed at the start of treatments to allow assessment of proliferation rates in the control and treated cell cultures.
The NIH 3T3 (normal) mouse fibroblast, A431 human epidermoid adenocarcinoma, and MCF-7 human breast cancer cells were cultured in DMEM medium containing 10% FBS. The MEL-28 human melanoma cells were cultured in MEM medium containing 10% FBS. The HT-29 human colon adenocarcinoma cells were cultured in McCoy's 5a medium containing 10% FBS. The A549 human lung carcinoma cells were maintained in Ham's F12K medium containing 10% FBS. Cells were seeded into 96-well plates and treated at ˜70-90% confluency. Two hours before treatments the medium was changed for fresh 10% serum medium, and then the cells were incubated for 72 hours in the presence of 0-200 μM of CCompound1 (●) or CCompound3 (CCDTHT) (▴), as indicated. The MTT assay was used to determine cell viability after treatments. The values, shown in FIGS. 5A-5F and expressed as percent decrease in viability compared to the untreated control cells, are the mean±std. dev. of 8 incubations in one experiment. Similar results were obtained in another experiment.
NIH3T3, T47D, A-431, HT-29, and MEL-28 cells were cultured as indicated earlier. CaOV-3 human ovarian cancer cells were cultured in DMEM containing 10% FBS. ZR-75-1 human estrogen receptor-positive breast cancer cells were maintained in RPMI 1640 medium supplemented with 10% FBS. HTB-157 human fetal fibroblasts, MEL-24 human malignant melanoma cells, Hep G2 human hepatoblastoma cells, and CaCO-2 human colon adenocarcinoma cells were maintained in Eagles's MEM containing 10% FBS. MB-231 human estrogen receptor-negative breast cancer cells were maintained in Leibovitz's L-15 medium supplemented with 10% FBS. Cells were seeded into 96-well plates and treated at ˜70-90% confluency. Two hours prior to treatments the medium was changed for fresh 10% serum medium, and then the cells were incubated for 10 days in the absence (□) or presence of 50 μM CCDTHT ? or 100 μM CCDTHT (▪). The medium was changed and the cells were re-treated on days 3 and 6. The MTT assay was used to determine cell viability on day 10. The data, shown in FIG. 6, are the mean±std. dev. of 8 incubations in one experiment. (The experiment was repeated twice with similar results).
NIH 3T3, MEL-28, MEL-24, CaOV-3, ZR-75-1, and T47D cells were cultured as described above. The OVCAR human ovarian cancer cells were cultured in DMEM containing 10% FBS. Cells were seeded into 96-well plates and used at ˜60-80% confluency. […]

The test system of another data set is 3A-SubE cells. As to the kind of experiment: Viability of 3A-SubE post crisis placenta cells (MTT assay). It is filed as cell-based. Particulars: 50 μM 48 hours, then 96 hours without CCDTHT.
In the next data set the test system is HepG2 cells. Put plainly: Viability of HepG2 hepatoblastoma cells (MTT assay). It is filed as cell-based, human. Particulars: 50 and 100 μM, 10 days. The method, then: as §1
Another data set has as its system choline transport. As to the kind of experiment: [14C]choline uptake and metabolism in AN3CA, MCF-7 and MEL-28 cancer cells. It is filed as cell-based, human. Conditions: 100 μM CCDTHT or 0.5 mM HC-3, 2 hours, each cell line. On the procedure:
MEL-28 and MCF-7 cells were cultured in MEM medium supplemented with 10% fetal bovine serum (FBS) and in DMEM medium supplemented with 10% FBS, respectively. The AN3CA human endometrial adenocarcinoma cells were maintained in Eagle's MEM containing 10% FBS. Cancer cells were grown up to confluency in 12-well plates in 10% fetal-bovine serum-containing medium, then incubated in the presence of 1 μCi of [methyl-^14C]choline (bought from Amersham; Piscataway, N.J.) for 2 hours. Cells were first rapidly (within 30 seconds) washed three times with 4 ml of serum-free medium, then extracted with ice-cold methanol. This was followed by the determination of cellular free radiolabeled choline and phosphocholine (PCho) by column chromatography as described earlier [Kiss, Z. and Crilly, K. S. (1995), “Tamoxifen inhibits uptake and metabolism of ethanolamine and choline in multidrug-resistant, but not in drug-sensitive, MCF-7 human breast carcinoma cells,” FEBS Lett. 360, 165-168], and the separation and determination of radiolabeled phosphatidylcholine (PtdCho) by thin layer chromatography as indicated in Kiss [Kiss, Z. (1996), “Direct proof that phorbol ester accelerates the use of choline phosphate for phosphatidylcholine synthesis in intact cells,” Arch. Biochem. Biophys. 335, 191-196].
MCF-7 and MEL-28 cells were cultured as described earlier. The AN3CA human endometrial adenocarcinoma cells were maintained in Eagle's MEM containing 10% FBS. Each cell type was grown in 12-well plates to confluency and then incubated with 1 μCi of [methyl-^14C]choline for 2 hours in the absence (□) or presence of 100 μM CCDTHT ? or 0.5 mM HC-3 (▪), followed by the determination of cellular contents of radiolabeled choline (A), PCho (B) and PtdCho (C), as indicated in FIG. 9. […] Thus, if both CCDTHT and HC-3 influenced cell viability solely via inhibition of choline metabolism, then these agents should similarly affect cell viability, at least at the concentrations used in the choline transport experiment.

Some results are limits rather than exact numbers.

As to `CC[N+](C)(CC)CCOCc1ccc2sc3ccccc3c(=O)c2c1.[I-]` [CCDTHT, N,N-diethyl-N-methyl-2-[(9-oxo-9H-thioxanthen-2-yl)methoxy]-ethanaminium iodide], in the data set with 966 SK cells, the “sensitivity compared with HaCaT cells, 966 SK fibroblasts” value is reported as “significantly less sensitive”. In addition, the cytotoxicity at 10 days, 100 μM in data set [1] was no more than 50%. Also, in the data set with 3A-SubE cells, the “reversibility: proliferation in fresh medium after treatment, 3A-SubE” value is “not sufficient to suppress proliferation”. The “sensitivity to the inhibitory actions, HepG2” value with HepG2 cells is “moderately sensitive”. For the same compound, the “inhibitory effects on choline uptake and metabolism (choline, PCho, PtdCho)” value with choline transport is “comparably strong inhibitory effects”.
